Laboratory results published in patent US6815187B1, “Stimulation of angiogenesis via syndecan-4 cytoplasmic domain signaling pathway” (Beth Israel Deaconess Medical Center, priority 1998, dated 2004).
Blank lines part the entries; values can stand above or below the molecule they belong to. Where no end group is shown, it is not given here. [ ]: non-standard residue; d: D form. pS = N[C@@H](COP(=O)(O)O)C(=O)O

Legend:
PKC = conditions: commercially available PKC inhibitors; cited from earlier work
[1] = system: syndecan-4 cytoplasmic tail phosphorylation in NIH 3T3 cells; assay: Syndecan-4 cytoplasmic tail phosphorylation stoichiometry (32P/35S double labeling) in NIH 3T3 cells; assay type: cell-based
Description: Confluent NIH 3T3 cells were washed twice in phosphate-free DMEM and incubated for 24 h at 37° C. in a 5% CO2 humidified atmosphere in phosphate-free DMEM supplemented with 0.5% fetal bovine serum. The cells were washed twice with methionine, phosphate, and serum-free DMEM and incubated for 6 h in the same medium, supplemented with 400 μCi/ml [^35S]methionine (New England Nuclear, Boston, Mass.). At the onset of the last 2 h of incubation, 500 μCi/ml [^32P]orthophosphoric acid (New England Nuclear) was added to the medium.
Cells were washed with PBS ([…], 10 mM Na2HPO4, 3.6 mM KCl, 1.8 mM KH2PO4, pH 7.4), dissociated by 0.05% trypsin, 0.5 mM EDTA (Life Technologies, Inc.) in PBS for 10 min at 22° C., and sedimented by 2000×g centrifugation at 4° C. for 5 min. The syndecan-4 ectoplasmic domain was immunoprecipitated from 0.5 ml of medium collected before cell trypsinization or from 0.5 ml of supernatant of the latter centrifugation. The cytoplasmic tail was immunoprecipitated from the pellet after a 30-min extraction at 4° C. in 0.5 mil of lysis buffer supplemented with 100 μM leupeptin, 2 μM pepstatin, and 10 nM okadaic acid (Sigma). Total protein concentrations in each fraction were measured by spectrophotometry at 595 nm (DU 640, Beckman, Fullerton, Calif.) of an aliquot developed for 10 min in Protein Assay Dye Reagent (Bio-Rad). Bovine serum albumin (Life Technologies Inc.) was used as standard.
The medium, trypsinization supernatant, and extracted pellet fractions were precleared by adding 30 μl of 1:1 (v/v) slurry of protein G plus/protein A-agarose beads (Calbiochem), and 10 μl of nonimmune rabbit serum (Life Technologies Inc.). After a 2-h incubation at 4° C. in rotating tubes, the beads were sedimented by 5 min, 5000×g centrifugation at 4° C. The cleared samples were supplemented with 40 μl of 1:1 (v/v) slurry of the above beads and 10 μl of rabbit polyclonal antiserum (syndecan-4 ectoplasmic domain-specific antiserum was added to the medium and trypsinization supernatant samples, and cytoplasmic tail-specific antiserum was added to the extracted pellet fraction) and incubated in rotating tubes for 18 h at 4° C. The agarose beads were collected by centrifugation as above, washed three times in heparinase digestion buffer, and resuspended in 40 μl of digestion buffer, and the GAG chains of the bead-attached ectoplasmic domains from the medium and from the trypsinization-supernatant were cleaved as above. The ectoplasmic and cytoplasmic tails were dissociated from the beads by a 10-min incubation in SDS buffer at 95° C., and the beads were sedimented by a 5 min, 13,000×g centrifugation at 4° C.
Immunoprecipitated, full-length syndecan-4 core proteins were resuspended in Laemmli sample buffer (2% SDS, 10% glycerol), 0.5% P-mercaptoethanol, 0.004% bromphenol blue, 50 mM Tris-HCl, pH 6.8) resolved by SDS-PAGE on a 10% slab gel, and transferred to a polyvinylidene fluoride (PVDF) membrane (Immobilon-P, Millipore, Bedford, Mass.) for 12 h at 25 mA in 150 mM glycine, 20 mM Tris-HCl, and 20% methanol. The ectoplasmic and cytoplasmic syndecan-4 domains were resolved on a 15% slab gel and transferred for 90 min at 20 mA in 150 mM glycine, 20 mM Tris-HCl, and 30% methanol to a low porosity PVDF membrane (Immobilon-P^SQ, Millipore). Radiolabeled bands detected by exposure to film (XAR, Kodak, Rochester, N.Y.) were excised, and their radioactivity was measured in both the ^32P and ^35S spectra by scintillation counting (LS 6000IC, Beckman, Fullerton, Calif.). In some cases, the same membranes were used for immunoblotting prior to band excision.
To determine the stoichiometry of the basal phosphorylation of syndecan-4, as well as the effect of bFGF and of other compounds on this phosphorylation, the cells were doubly labeled with [^35S]methionine and [^32P]orthophosphoric acid. […]

recombinant PKCα = biological target: T1, recombinant PKCα (Homo sapiens, UniProt P17252); assay: PKC in vitro assay, phosphorylation of PKCβ1 optimal substrate peptide by recombinant PKCα; assay type: biochemical; conditions: 50 μM peptide with cofactors PS, DAG and calcium
T1 construct: made in house
Description: Samples (30 μl) consisted of PKCβ1 optimal substrate peptide (100 μM) either with or without syndecan-4 cytoplasmic tail peptides S4c or S4c-P (both at 50 μM) in 25 mM Tris-HCl (pH 7.4), […], 1 mM DTT, 50 μM ATP, and 5 μCi [y-^32P]ATP (New England Nuclear, Boston, Mass.). In some assays the buffer was supplemented with either PIP2 (50 μM), or PS (4 μg/ml), diolein (6.2 μg/ml), and 0.2 mM CaCl2. In PKCδ assays the buffer was supplemented with PS and diolein as above, and with 0.5 mM EGTA. Upon addition of either PKCα (120 ng/ml) or PKCδ (430 ng/ml), samples were incubated at 30° C. for 10 min, and reactions were stopped by boiling in Laemmli sample buffer for 4 min. The samples were resolved on 16.5% Tris-tricine gels (BioRad Laboratories), transferred to PVDF membranes and detected as described previously in Experimental Series I.
To assess the effect of Ser^183 phosphorylation on syndecan-4-dependent PKC activation, the ability of the 28 amino acid-long syndecan-4 cytoplasmic tail peptide, S4c, and S4c-P peptides to activate recombinant PKCα was studied using the PKCβ1 optimal substrate peptide in an in-vitro assay. The results are graphically illustrated by FIG. 5.
Densitometry histograms of autoradiographic images of PKC β1 optimal substrate peptide were resolved on 16.5% Tris-tricine gels and then transferred to PVDF membranes (n=3; bars denote SD). […]

[2] = PIP2 binding assay (filtration of PIP2 micelle-bound peptide)
Description: PIP2 (from Sigma, dissolved at 2 mg/ml in 20 parts CHCl3, 9 parts MeOH, 1 part H2O, 0.1 part 1N HCl) was dried under N2 and sonicated for 5 min in ice-cold H2O at a final concentration of 1 mg/ml. Syndecan-4 cytoplasmic tail peptides S4c or S4c-P (100 μM) were incubated on ice for 30 min with the indicated concentrations of PIP2 in 10 mM Tris-HCl (pH 7.5), 75 mM KCl, 0.5 mM DTT, in aliquots of 100 μl. The samples were layered on 30 kDA-molecular-mass cutoff cellulose filters (Ultrafree-MC, Millipore, Bedford, Mass.), and spun at 2000 g for 1 min, following the method described in Haarer et al., Mol. Cell Biol. 13: 7864-7873 (1993). The samples (40 μl of each in Laemmli sample buffer, 2% SDS, 10% glycerol, 0.5% β-mercaptoethanol, 0.004% bromophenol blue, 50 mM Tris-HCl, pH 6.8) were resolved by SDS-PAGE on 16.5% Tris-tricine gels (BioRad Laboratories, Hercules, Calif.). Gels were stained with Coomassie Brilliant Blue G-250 (BioRad Laboratories), and images of the stained bands were digitized (DeskScan II on ScanJet 4c, Hewlett Packard) and quantitated by densitometry (ImageQuant, Molecular Dynamics, Sunnyvale, Calif.).
Both the oligomerization and PKCα activation capacities of the cytoplasmic tail of syndecan-4 have been reported as depending on the presence of PIP2 [Oh et al., J. Biol. Chem. 272: 11805-11811 (1997); Lee et al., J. Biol. Chem. 273: 13022-13029 (1998)]. It was of interest, therefore, to determine whether the phosphorylation of Ser^183 in the cytoplasmic tail of syndecan-4 affects the affinity of the tail to PIP2. To this end, the in-vitro binding between PIP2 micelles and S4c or S4c-P peptides was compared using a filtration assay. The filter retains the PIP2 micelle-bound peptide, while the unbound peptide passes through it. The results are illustrated by FIGS. 7A and 7B respectively.
Samples were resolved on 16.5% Tris-tricine gels. FIG. 7B graphically illustrates the densitometry results of the gel bands of the S4c (black bars) and S4c-P (white bars) peptides shown in FIG. 7A.

[3] = system: syndecan-4 expression in NIH 3T3 cells; assay: Syndecan-4 expression level by immunoblotting and densitometry of cell lysates; assay type: cell-based
Description: After blocking in PBS containing 5% nonfat milk powder for 1 h at 22° C., the membrane was incubated in the same solution supplemented with 1:3000 (v/v) dilution of either ectoplasmic or cytoplasmic tail-specific antiserum for 2 h, washed with PBS, and incubated for 1 h in 5% milk powder-PBS containing 1:2000 diluted goat anti-rabbit IgG conjugated to peroxidase (Vector Laboratories, Burlingame, Calif.). The secondary antibody was detected, after […] PBS wash, by chemiluminescence (Western Blot, Chemiluminescence Reagent Plus, New England Nuclear). Molecular weights were estimated by comparison with the electrophoretic mobility of standards (Kaleidoscope Prestained Standards, Bio-Rad). Densitometry of digitized images of immunoprobed membranes (ScanJet 4c, Hewlett Packard) was performed using ImageQuant software (Molecular Dynamics, Sunnyvale, Calif.).
If, contrary to our assumption, the incorporation efficiency of ^35S is higher than that of ^32P, the bFGF-induced decrease in syndecan-4 phosphorylation could solely result from bFGF up-regulation of syndecan-4 synthesis. […] The syndecan-4 bands, which similar to immunoprecipitated samples (FIG. 2A) ran at an approximate molecular mass of […], were detected with the antiserum specific to the ectoplasmic domain; and the amount of protein in each band was quantified by densiometry. […]

Molecule: Cn1c2ccccc2c2c3c(c4c5ccccc5n(CCC#N)c4c21)CNC3=O [Gö 6976]
IC50 (PKC): 8 nM
phosphorylation of syndecan-4 ([1]; Gö 6976 up to 100 nM in PMA (0.5 μM)-treated cells): not reduced

Molecule: CCCCCCCCCCCCCC(=O)O[C@@H]1[C@@H](C)[C@@]2(O)[C@@H](C=C(CO)C[C@]3(O)C(=O)C(C)=C[C@@H]23)[C@@H]2C(C)(C)[C@]12OC(C)=O [PMA, Phorbol-12-myristate-13-acetate]
syndecan-4 phosphorylation relative to basal level ([1]; 0.5 μM PMA): ~3 fold
stoichiometry of the phosphorylation of syndecan-4 ([1]; 0.5 μM PMA during last 5 h of serum-free starvation, n=3): 0.81±0.33 mol Pi/mol syndecan-4

Molecule: COc1ccc2c(c[n+](C)c3c4cc5c(cc4ccc23)OCO5)c1OC [chelerythrine]
phosphorylation of syndecan-4 ([1]; 6 μM chelerythrine together with 0.5 μM PMA): undetectable level
concentration above which syndecan-4 phosphorylation started to decline ([1]; applied together with 0.5 μM PMA): above 1.5 μM

Molecule: Calphostin
IC50 (PKC): 50 nM

Kd ([2]; calculated from densitometry of filter flow-through, FIG. 7, read-out: dissociation constant (Kd) for PIP2): 232000 nM
peptide passed through the filter ([2]; peptide:PIP2 molar ratio of 1:2): 50%
peptide retained by the filter ([2]; peptide:PIP2 molar ratio of 2:1, 100 μM peptide): none
Molecule: S4c-P: similar syndecan-4 cytoplasmic tail peptide with a phosphorylated Ser (RMKKKDEG[pS]YDLGKKPIYKKAPTNEFYA)
effect on catalytic activity of PKCα (recombinant PKCα): neither the S4c, nor the S4c-P peptides had any additional effect

Molecule: basic fibrocyte growth factor [bFGF]
phosphorylation stoichiometry of syndecan-4 ([1]; 10 ng/ml bFGF during last 5 h of serum-free starvation, n=5, basal 0.31±0.12): 0.16±0.02 mol Pi/mol syndecan-4
phosphorylation stoichiometry of syndecan-4 ([1]; 20 and 30 ng/ml bFGF, n=3): 0.12±0.06 mol Pi/mol syndecan-4
level of syndecan-4 expression, % of control cells ([3]; 10 ng/ml bFGF): 85%
level of syndecan-4 expression, % of control cells ([3]; 30 ng/ml bFGF): 93%

Molecule: calyculin
syndecan-4 phosphorylation in bFGF-treated cells ([1]; 5 nM calyculin applied with 10 ng/ml bFGF): basal level
increase of syndecan-4 phosphorylation relative to basal level ([1]; 5 nM calyculin in the absence of bFGF): more than 2.5 fold
